From the supplement of paper PMC6045584
± gives the standard deviation of the averaged measurements.

Assays:
LENVATINIB = compound: COc1cc2nccc(Oc3ccc(NC(=O)NC4CC4)c(Cl)c3)c2cc1C(N)=O [LENVATINIB]; experiment: surviving fraction relative to DMSO-only wells; higher = less growth inhibition; conditions: exposure time: 5 days
How it was run: (§1)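 A line counted only if its three screens reached replicate Pearson r >0.7 and median Z' >0.3. Tumour cells in log phase were seeded at 250–500 per well in 384-well plates and, after 24 hours, kept in continuous contact with inhibitors at 0.5, 1, 5, 10, 50, 100, 500 and 1000 nM for five days. Surviving fraction was taken from CellTiter-Glo luminescence relative to the median of DMSO-only wells.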

BEZ-235 = compound: Cn1c(=O)n(-c2ccc(C(C)(C)C#N)cc2)c2c3cc(-c4cnc5ccccc5c4)ccc3ncc21 [BEZ-235]; experiment: as above; conditions: exposure time: 5 days
How it was run: as §1

Row | Test System | surviving fraction (LENVATINIB; 0.5 nM) | surviving fraction (LENVATINIB; 1 nM) | surviving fraction (LENVATINIB; 5 nM) | surviving fraction (LENVATINIB; 10 nM) | surviving fraction (LENVATINIB; 50 nM) | surviving fraction (LENVATINIB; 100 nM) | surviving fraction (LENVATINIB; 500 nM) | surviving fraction (LENVATINIB; 1000 nM) | surviving fraction (BEZ-235; 0.5 nM) | surviving fraction (BEZ-235; 1 nM) | surviving fraction (BEZ-235; 5 nM) | surviving fraction (BEZ-235; 10 nM) | surviving fraction (BEZ-235; 50 nM) | surviving fraction (BEZ-235; 100 nM) | surviving fraction (BEZ-235; 500 nM) | surviving fraction (BEZ-235; 1000 nM)
1 | S68 BREAST | 0.924 ± 0.35 | 0.961 ± 0.079 | 0.971 ± 0.29 | 1.18 ± 0.2 | 1.09 ± 0.091 | 1.1 ± 0.26 | 0.858 ± 0.34 | 1.16 ± 0.22 | 0.792 ± 0.081 | 1.01 ± 0.26 | 1.07 ± 0.13 | 1.06 ± 0.22 | 0.574 ± 0.13 | 0.273 ± 0.029 | 0.0663 ± 0.0023 | 0.0637 ± 0.0023
2 | HCC78 LUNG | 1.08 ± 0.28 | 1.02 ± 0.24 | 0.93 ± 0.32 | 1.04 ± 0.22 | 1.08 ± 0.044 | 1.07 ± 0.22 | 1.02 ± 0.1 | 0.978 ± 0.14 | 0.953 ± 0.086 | 0.943 ± 0.17 | 1.05 ± 0.23 | 1.09 ± 0.15 | 0.621 ± 0.18 | 0.393 ± 0.05 | 0.0757 ± 0.011 | 0.0527 ± 0.01
3 | CASKI CERVIX | 0.944 ± 0.077 | 0.98 ± 0.096 | 0.988 ± 0.014 | 1.01 ± 0.019 | 1.026 ± 0.0064 | 1.08 ± 0.063 | 0.985 ± 0.073 | 0.956 ± 0.073 | 0.872 ± 0.028 | 0.922 ± 0.016 | 0.896 ± 0.065 | 0.882 ± 0.081 | 0.452 ± 0.021 | 0.292 ± 0.0061 | 0.127 ± 0.0064 | 0.096 ± 0.0036
4 | CADOES1 SOFT TISSUE | 0.975 ± 0.14 | 0.885 ± 0.14 | 0.859 ± 0.14 | 0.885 ± 0.049 | 0.897 ± 0.1 | 0.836 ± 0.11 | 0.839 ± 0.075 | 0.842 ± 0.17 | 0.965 ± 0.1 | 0.996 ± 0.098 | 0.897 ± 0.03 | 0.99 ± 0.078 | 0.531 ± 0.11 | 0.28 ± 0.063 | 0.128 ± 0.007 | 0.0853 ± 0.01
5 | LNCAP PROSTATE | 1.16 ± 0.031 | 0.973 ± 0.044 | 0.904 ± 0.17 | 0.896 ± 0.1 | 1.02 ± 0.13 | 0.924 ± 0.16 | 0.909 ± 0.12 | 0.533 ± 0.073 | 0.998 ± 0.11 | 0.934 ± 0.06 | 0.887 ± 0.14 | 0.9 ± 0.12 | 0.405 ± 0.016 | 0.255 ± 0.039 | 0.087 ± 0.014 | 0.0853 ± 0.011
6 | HCC1806 BREAST | 1.02 ± 0.018 | 0.932 ± 0.099 | 1.12 ± 0.13 | 1.13 ± 0.089 | 1.24 ± 0.079 | 1.1 ± 0.13 | 0.961 ± 0.088 | 0.941 ± 0.13 | 0.958 ± 0.16 | 0.986 ± 0.14 | 1.17 ± 0.085 | 1.15 ± 0.1 | 0.837 ± 0.016 | 0.662 ± 0.05 | 0.388 ± 0.036 | 0.317 ± 0.041
7 | MDAMB468 BREAST | 1.04 ± 0.059 | 1.12 ± 0.047 | 1.11 ± 0.092 | 1.09 ± 0.016 | 1.14 ± 0.086 | 1.1 ± 0.1 | 1.1 ± 0.056 | 1.05 ± 0.05 | 1.08 ± 0.038 | 1.11 ± 0.015 | 1.07 ± 0.06 | 1.13 ± 0.018 | 1.06 ± 0.093 | 0.885 ± 0.05 | 0.366 ± 0.03 | 0.247 ± 0.013
8 | JURKAT HAEMATOPOIETIC AND LYMPHOID TISSUE | 1.06 ± 0.011 | 1.08 ± 0.024 | 1.03 ± 0.035 | 1.02 ± 0.041 | 1 ± 0.039 | 1.02 ± 0.038 | 1.013 ± 0.009 | 0.964 ± 0.032 | 1.05 ± 0.03 | 1.07 ± 0.032 | 1.05 ± 0.024 | 1.05 ± 0.03 | 0.788 ± 0.021 | 0.582 ± 0.021 | 0.211 ± 0.0053 | 0.056 ± 0.001
9 | KPD BONE | 1 ± 0.019 | 0.99 ± 0.067 | 1.01 ± 0.078 | 1.01 ± 0.093 | 1 ± 0.11 | 1.02 ± 0.11 | 0.948 ± 0.03 | 0.814 ± 0.037 | 0.977 ± 0.065 | 1.01 ± 0.061 | 1 ± 0.024 | 0.951 ± 0.032 | 0.525 ± 0.029 | 0.361 ± 0.0087 | 0.0903 ± 0.0011 | 0.0727 ± 0.0025
10 | MHM BONE | 1.033 ± 0.0097 | 1.01 ± 0.024 | 1.025 ± 0.0038 | 1.074 ± 0.0044 | 1.05 ± 0.033 | 1.03 ± 0.037 | 0.981 ± 0.019 | 0.937 ± 0.05 | 1.01 ± 0.021 | 0.995 ± 0.02 | 1.025 ± 0.0021 | 1.036 ± 0.0079 | 0.991 ± 0.018 | 0.885 ± 0.028 | 0.427 ± 0.011 | 0.351 ± 0.016
11 | A549 LUNG | 1.04 ± 0.067 | 1.03 ± 0.053 | 1.04 ± 0.053 | 1.04 ± 0.061 | 1.06 ± 0.087 | 1.03 ± 0.044 | 1.13 ± 0.073 | 1.12 ± 0.025 | 0.997 ± 0.054 | 1.01 ± 0.052 | 1.01 ± 0.074 | 1.01 ± 0.083 | 1.03 ± 0.033 | 0.66 ± 0.022 | 0.26 ± 0.022 | 0.221 ± 0.0093
12 | SUM44 BREAST | 1.01 ± 0.06 | 1.03 ± 0.054 | 1.03 ± 0.048 | 1.04 ± 0.018 | 1.05 ± 0.044 | 1.07 ± 0.052 | 1.03 ± 0.029 | 1.01 ± 0.015 | 1.03 ± 0.046 | 1.02 ± 0.067 | 1.04 ± 0.025 | 0.972 ± 0.021 | 0.724 ± 0.026 | 0.422 ± 0.072 | 0.104 ± 0.0081 | 0.099 ± 0.017
13 | COLO320DM LARGE INTESTINE | 1.16 ± 0.058 | 1.1 ± 0.077 | 1.05 ± 0.053 | 1.1 ± 0.18 | 1.17 ± 0.033 | 1.1 ± 0.072 | 1.14 ± 0.067 | 1.11 ± 0.068 | 1.06 ± 0.059 | 1.12 ± 0.08 | 1.14 ± 0.074 | 1.06 ± 0.039 | 0.869 ± 0.07 | 0.692 ± 0.034 | 0.328 ± 0.018 | 0.192 ± 0.0043
14 | HU09 BONE | 0.925 ± 0.039 | 0.985 ± 0.079 | 0.97 ± 0.014 | 0.937 ± 0.13 | 0.649 ± 0.075 | 0.587 ± 0.021 | 0.33 ± 0.045 | 0.288 ± 0.034 | 1.04 ± 0.18 | 1.07 ± 0.059 | 1.19 ± 0.053 | 1.12 ± 0.1 | 0.572 ± 0.025 | 0.416 ± 0.025 | 0.181 ± 0.013 | 0.134 ± 0.006
15 | SUM149 BREAST | 1.07 ± 0.12 | 1.04 ± 0.061 | 1.05 ± 0.025 | 1.02 ± 0.16 | 1.04 ± 0.076 | 1.01 ± 0.066 | 0.992 ± 0.06 | 0.965 ± 0.084 | 1.11 ± 0.11 | 1.15 ± 0.044 | 1.04 ± 0.018 | 1 ± 0.059 | 0.715 ± 0.04 | 0.587 ± 0.024 | 0.153 ± 0.0052 | 0.108 ± 0.011
16 | VCAP PROSTATE | 1.03 ± 0.038 | 1.04 ± 0.12 | 1.17 ± 0.15 | 1.12 ± 0.1 | 1.1 ± 0.11 | 1.17 ± 0.079 | 0.962 ± 0.097 | 0.97 ± 0.078 | 1.08 ± 0.1 | 0.994 ± 0.09 | 1.12 ± 0.082 | 1.13 ± 0.12 | 0.902 ± 0.1 | 0.867 ± 0.056 | 0.422 ± 0.053 | 0.402 ± 0.0052
17 | SNU475 LIVER | 1.04 ± 0.069 | 1.04 ± 0.042 | 1.02 ± 0.07 | 1.03 ± 0.03 | 0.971 ± 0.045 | 1.03 ± 0.018 | 0.995 ± 0.037 | 1 ± 0.016 | 1.03 ± 0.038 | 1 ± 0.07 | 0.921 ± 0.036 | 0.932 ± 0.039 | 0.423 ± 0.018 | 0.285 ± 0.0051 | 0.137 ± 0.015 | 0.148 ± 0.0081
18 | DU4475 BREAST | 1.02 ± 0.26 | 1.12 ± 0.21 | 0.991 ± 0.23 | 0.994 ± 0.17 | 0.935 ± 0.22 | 1.06 ± 0.16 | 0.912 ± 0.2 | 0.994 ± 0.26 | 0.914 ± 0.16 | 1.05 ± 0.13 | 0.919 ± 0.16 | 0.835 ± 0.1 | 0.525 ± 0.064 | 0.194 ± 0.018 | 0.0427 ± 0.0085 | 0.035 ± 0.0035
19 | SG31 HEADNECK | 1.04 ± 0.17 | 1.17 ± 0.15 | 0.975 ± 0.3 | 0.977 ± 0.066 | 0.985 ± 0.12 | 0.967 ± 0.059 | 1.24 ± 0.09 | 1.12 ± 0.2 | 1.1 ± 0.15 | 1.138 ± 0.0095 | 0.946 ± 0.091 | 1.02 ± 0.15 | 0.602 ± 0.088 | 0.569 ± 0.042 | 0.354 ± 0.029 | 0.289 ± 0.028
20 | SKBR3 BREAST | 1 ± 0.18 | 1.08 ± 0.11 | 1.04 ± 0.15 | 1.06 ± 0.099 | 1.05 ± 0.19 | 1.16 ± 0.11 | 1.1 ± 0.068 | 0.944 ± 0.17 | 1.07 ± 0.18 | 0.925 ± 0.035 | 0.88 ± 0.046 | 1.07 ± 0.018 | 0.786 ± 0.097 | 0.564 ± 0.039 | 0.141 ± 0.014 | 0.116 ± 0.0092
